The text below walks through data of US20260256777A1, “DEGRADANT COMPOUND IN A MEDICAMENT” (VISUS THERAPEUTICS, INC., priority 2020, published 2026).

A short description of series [1]: Forced degradation of combined brimonidine tartrate and carbachol APIs, LC-PDA analysis. Type of series: physicochemical. As to conditions: 66 hours. As for the experimental part: Following the procedures shown in Table 9, the two APIs combined were stressed with moisture and heat (Sample A), 0.1 M HCl at room temperature (Sample B), 0.1 M NaOH at room temperature (Sample C), vehicle and heat (Sample D), 1 M HCl at room temperature (Sample E), and 1 M NaOH at room temperature (Sample F) for 66 hours. A drug product vehicle was stressed under heat for 66 hours as a control (Sample G). After the stress treatment was completed, all samples were removed from condition, allowed to cool to room temperatures, then neutralized where appropriate, and brought to a similar concentration level. The samples were capped and shaken until all the materials in each sample were dissolved. Then each sample solution was diluted in the HPLC method diluent used in Example 4, Table 6 and mixed well. For retention time verification purposes, a reference sample solution was also prepared using a carbachol/brimonidine six month accelerated stability sample (Table 8). The brimonidine tartrate analytical concentration for all of the degraded and the reference sample solutions was 0.1 mg/mL.
All of the sample solutions prepared as described in Table 9 were analyzed per the HPLC-PDA method shown in Example 4, Table 6. […] The level of the impurity present in both base-stressed samples is about 0.02% relative to that of the brimonidine peak. The extracted UV spectra for the RRT 0.91 impurity from the carbachol/brimonidine formulation (6 month accelerated stability sample) and the two base-stressed samples are similar for each.
The Phase I forced degradation study confirmed that the RRT 0.91 impurity was formed when the two APIs together were stressed under basic (either 0.1 M NaOH or 1 M NaOH) conditions and at room temperatures. To study temperature impact on the reaction, the two APIs, brimonidine tartrate and carbachol, were combined and stressed under both base and heat (45° C.) conditions simultaneously.
Additionally, to further confirm that the presence of both APIs was needed for the formation of the RRT 0.91 peak, individual API samples were also stressed in the same way. […] After the stress treatment was completed, all samples (H-M) were removed from condition, allowed to cool to room temperatures, neutralized where appropriate, and brought to a similar concentration level. The samples were capped and shaken until all the materials in each flask were dissolved. Then each sample solution was diluted in the HPLC method diluent (Example 4, Table 6) and mixed well.
All the base and heat-stressed sample solutions prepared as described in Table 10 were analyzed by LC-PDA analysis per the method shown in Example 4, Table 6. […] This further confirmed that the RRT 0.91 impurity was a reaction product of the two APIs.

Series [2] in a line: Forced degradation samples analysed by prototype HPLC method. Type of series: physicochemical. As for the experimental part: A new prototype HPLC method has been developed to study early eluting peaks not well separated by the method described in Example 3, Table 3. The method better separates early eluting brimonidine-related impurities. All sample solutions from the Phase I and II stress studies were analyzed with the prototype method. […] This was consistent with the analysis results per the method described in Example 4, Table 6. Another unknown impurity, impurity B, was also observed in the chromatogram for the 0.1 M NaOH and heat-stressed combined API sample at RT 3.44 min with a level of ~0.05% relative to the brimonidine peak area. The extracted UV spectrum for impurity B is consistent with the UV Spectrum previously observed in stability samples.

On to `NC(=O)N1CCN=C1Nc1ccc2nccnc2c1Br` [RRT 0.91 Impurity, 2-((5-bromoquinoxalin-6-yl)amino)-4,5-dihydro-1H-imidazole-1-carboxamide], for which the “Relative % Peak Area for RRT 0.91 Impurity (Versus Peak Area of Brimonidine)” value in series [1] (0.1M NaOH, 45° C.) is 0.15%; in series [1] (0.1M NaOH, room temperature), 0.02%; in series [1] (0.1M NaOH, room temperature, listed as RRT 0.91 impurity), “about 0.02%”; in series [1] (1M NaOH, 45° C.) it was 0.03%; in series [1] (1M NaOH, room temperature), 0.02%; in series [1] (1M NaOH, room temperature, listed as RRT 0.91 impurity), “about 0.02%”.

Turning to `NC(=O)NCCNC(=O)Nc1ccc2nccnc2c1Br` [Impurity B, 1-(5-bromoquinoxalin-6-yl)-3-(2-ureidoethyl)urea], in series [2] (0.1 M NaOH and heat-stressed combined API sample), the “impurity B level relative to the brimonidine peak area” value was ~ 0.05%. Also, the “impurity B level” value in series [2] (other base-stressed combined APIs) is given as “very low levels”.
